Like-named read-outs stand apart in the source and are kept apart here.
Key:
[1] = target: WT EGFR (Homo sapiens (Human), UniProt P00533); experiment: EGFR (Y1068) phosphorylation in NCI-H838 cells (MSD); assay type: cell-based; conditions: p-EGFR (Y1068)/total EGFR, 4 h, hEGF stimulation
[2] = system: BT474 cells; experiment: BT474 anti-proliferation assay (MTS); assay type: cell-based; conditions: Homo sapiens
Procedure: A compound's activity of selective inhibition for HER2 wild type amplification can be evaluated with BT474 cell line (ATCC® HTB-20™). The cell line expressed phosphorylated HER2 protein and its proliferation depended on the amplified gene, which could be used for in vitro PD and anti-proliferation assays.
The anti-proliferation activity of compounds were determined as following procedure: The BT474 cells were sorted in 384 well plates with the DMEM medium containing 10% FBS and […] overnight and then dosed with tested compounds at a series of concentrations (30 μM, 10 μM, 3 μM, 0.3 μM, 0.1 μM, 0.03 μM, 0.01 μM, 0.001 μM) on next day. Meanwhile, another cells plate was prepared for measuring GO value on next day. The dosed plates were incubate for 72h at 37° C. with 5% CO2 and the number of viable cells in each well of GO or dosed plates were measured by MTS (CellTiter 96® AQueous One Solution Cell Proliferation Assay, Promega) endpoint. This assay is a colorimetric method for determining the number viable cells in the proliferation assay. Detection reagents (5 μl) was dispensed into per well, and the plates were incubated for 2 hrs at room temperature. Then, absorbance at 490 nm and 650 nm (reference wavelength) in each well was measured using the safile II. (Tecan). The percentage of proliferation was got from the formula: % Proliferation=100×(G3 value of sample well-Go value)/(G3 value of DMSO control-Go value). The GI50 values were further calculated as the compounds concentration required for 50% Proliferation in best-fit curves using Genedata Screener® software.

[3] = Blood brain barrier penetration assay in rats (short oral absorption model); assay type: in vivo; conditions: for Kp uu: male, Han Wistar, rat, po
Procedure: In vitro blood, plasma and brain binding assay was carried out with equilibrium dialysis device. Diluted blood (1:1with DPBS pH7.4), EDTA-anticoagulated plasma, and brain homogenate (1:3 with DPBS pH7.4) were spiked with 5 μM test compound (in triplicate) and dialyzed against equal volume of 150 μL 100 mM PBS buffer (pH7.4) at 37° C. for appropriate equilibration time in a slowly rotated plate. At the end of incubation, a 50 μL aliquot from the receiver side and a 5 μL from the donor chamber were taken. The 5 μL sample was further diluted with 45 μL of blank blood, plasma or brain homogenate. Paired samples were matrix-matched with either buffer or blank matrix, and mixed for 2 min, and then precipitated with 150 μL cold acetonitrile with 100 ng/mL tolbutamide as internal standard. After centrifuging at 4000 rpm for 20 min, supernatant was diluted with 0.1% formic acid aqueous solution and analyzed for LC/MS/MS (API 4000, Applied Biosystems, Foster City). Unbound fraction (fu) of test compound were calculated by the ratio of the buffer side response to the brain homogenate/plasma/blood side response, and unbound fraction (fu,bl, fu,pl and fu,br) of test compound in non-diluted blood and tissue were calculated from measured fu in homogenate and diluted blood with the following equation: fu,bl (fu,br)=(1/D)/[(1/fu−1)+1/D)]. D is dilution factor. (D equates 1 for plasma, 2 for blood, and 4 for brain)
A Short oral absorption (SOA) model is an in-vivo screening model to identify brain penetration of a compound. Six male Han Wistar rats purchased from Beijing Vital River were orally dosed with the compound. At predefined time point post-dose, cerebral spinal fluid (CSF) was collected from cisterna magna, and blood samples (>60 μL/time point/each site) were collected via cardiac puncture, into separate EDTA anti-coagulated tubes, and then immediately diluted with 3-fold volume of water for blood samples, or centrifuged at 4000 g for 10 min to obtain plasma. Brain tissue was harvested and homogenized in 3× volume of 100 mM phosphate buffered saline (pH7.4). All samples were stored at ˜−70° C. prior to LC/MS/MS analysis.
Standards were prepared by spiking blank plasma, blood, brain homogenate and artificial CSF. Homogenized brain tissue along with blood/plasma samples were precipitated by adding 3-fold volume of cold acetonitrile containing internal standard, and 10 μL of CSF samples were precipitated with 100 μL of cold acetonitrile containing internal standard. After 2 min vortex and 5 min centrifugation at 14,000 rpm, supernatant was analyzed by LC/MS/MS (API 4000, Applied Biosystems, Foster City). Two sets of standard curves were run at the beginning and end of each batch from blood sample analysis. For brain and CSF samples, one standard curve was analyzed along with test samples.
Total brain levels, expressed as brain/blood ratio (Kp,brain) were measured by AUC(brain)/AUC(blood or plasma) in rodents after oral administration. Similarly, CSF levels represented by a ratio of CSF/blood exposure (Kp,CSF) were determined by AUC(CSF)/AUC(blood or plasma). Free fraction of test compound in biological matrix was determined by in vitro blood and brain binding assay.
Kp,uubrain and Kp,uu CSF was calculated by the following equation: Kp,uu brain=AUC(brain)/AUC(blood or plasma)×(fubrain/fublood/plasma) and Kp,uu CSF=AUC(CSF)/AUC(blood or plasma)×(1/fublood/plasma).

[4] = target: WT HER2 (Homo sapiens (Human), UniProt P04626); experiment: HER2 (Y1248) phosphorylation in BT474 cells (MSD); assay type: cell-based; conditions: p-HER2 (Y1248)/total HER2, 4 h, read-out: HER2 WT Amplification BT474 IC50
Procedure: The plates were incubated for 4 h at 37° C. with 5% CO2 and then the HER2 (Y1248) phosphorylation level of cells in each well were measured with MSD Kit (Phospho-ErbB2 ([…]) Assay Whole Cell Lysate Kit: Cat # […]-3). The assay is a electrochemiluminescent method (MESO SCALE DISCOVERY) for determining both phosphorylated and total HER2 of cells with an MSD SECTOR® Imager and then the ratio of p-HER2/total HER2 can be generated by the machine.

[5] = BT-474, BT474 cells, 72 h, MTS, read-out: HER2 WT Amplification BT474 GI50
[6] = CSF, male Han Wistar rats, oral, AUC(CSF)/AUC(blood or plasma) x 1/fu, read-out: Kp,uu CSF
[7] = brain, male Han Wistar rats, oral, AUC(brain)/AUC(blood or plasma) x fu ratio, read-out: Kp,uu brain

WT EGFR, sequence (P00533 25-1210): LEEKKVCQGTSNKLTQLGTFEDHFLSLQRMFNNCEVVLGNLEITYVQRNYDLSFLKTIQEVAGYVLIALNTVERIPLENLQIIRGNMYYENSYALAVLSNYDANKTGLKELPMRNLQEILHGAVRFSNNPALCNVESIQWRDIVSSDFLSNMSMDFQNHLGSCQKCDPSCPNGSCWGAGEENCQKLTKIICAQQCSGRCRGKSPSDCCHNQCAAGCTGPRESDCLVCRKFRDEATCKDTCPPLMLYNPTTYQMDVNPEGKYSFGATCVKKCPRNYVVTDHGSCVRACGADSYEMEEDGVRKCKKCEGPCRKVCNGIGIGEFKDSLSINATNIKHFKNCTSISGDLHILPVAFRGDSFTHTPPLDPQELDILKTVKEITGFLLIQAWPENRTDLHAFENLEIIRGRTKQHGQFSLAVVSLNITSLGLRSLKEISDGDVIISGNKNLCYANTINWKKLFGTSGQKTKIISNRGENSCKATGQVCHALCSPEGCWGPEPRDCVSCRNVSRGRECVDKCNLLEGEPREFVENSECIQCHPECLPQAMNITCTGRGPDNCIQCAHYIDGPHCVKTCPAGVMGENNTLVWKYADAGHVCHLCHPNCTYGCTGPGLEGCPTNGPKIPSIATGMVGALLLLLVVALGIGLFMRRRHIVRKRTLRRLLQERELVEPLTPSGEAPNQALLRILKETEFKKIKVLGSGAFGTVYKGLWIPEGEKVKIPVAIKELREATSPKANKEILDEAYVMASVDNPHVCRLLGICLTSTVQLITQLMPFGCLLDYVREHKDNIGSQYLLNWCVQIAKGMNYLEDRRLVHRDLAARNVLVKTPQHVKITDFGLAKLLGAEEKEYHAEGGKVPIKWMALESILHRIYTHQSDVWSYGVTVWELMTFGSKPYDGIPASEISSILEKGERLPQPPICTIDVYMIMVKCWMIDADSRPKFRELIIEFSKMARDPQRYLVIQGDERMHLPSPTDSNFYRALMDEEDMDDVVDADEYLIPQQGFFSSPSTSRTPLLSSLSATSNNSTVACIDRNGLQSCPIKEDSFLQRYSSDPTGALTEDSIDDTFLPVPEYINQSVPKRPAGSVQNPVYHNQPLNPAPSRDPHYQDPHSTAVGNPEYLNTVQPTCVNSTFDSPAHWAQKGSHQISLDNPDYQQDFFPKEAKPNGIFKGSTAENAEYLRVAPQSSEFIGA
WT HER2, sequence (P04626 23-1255): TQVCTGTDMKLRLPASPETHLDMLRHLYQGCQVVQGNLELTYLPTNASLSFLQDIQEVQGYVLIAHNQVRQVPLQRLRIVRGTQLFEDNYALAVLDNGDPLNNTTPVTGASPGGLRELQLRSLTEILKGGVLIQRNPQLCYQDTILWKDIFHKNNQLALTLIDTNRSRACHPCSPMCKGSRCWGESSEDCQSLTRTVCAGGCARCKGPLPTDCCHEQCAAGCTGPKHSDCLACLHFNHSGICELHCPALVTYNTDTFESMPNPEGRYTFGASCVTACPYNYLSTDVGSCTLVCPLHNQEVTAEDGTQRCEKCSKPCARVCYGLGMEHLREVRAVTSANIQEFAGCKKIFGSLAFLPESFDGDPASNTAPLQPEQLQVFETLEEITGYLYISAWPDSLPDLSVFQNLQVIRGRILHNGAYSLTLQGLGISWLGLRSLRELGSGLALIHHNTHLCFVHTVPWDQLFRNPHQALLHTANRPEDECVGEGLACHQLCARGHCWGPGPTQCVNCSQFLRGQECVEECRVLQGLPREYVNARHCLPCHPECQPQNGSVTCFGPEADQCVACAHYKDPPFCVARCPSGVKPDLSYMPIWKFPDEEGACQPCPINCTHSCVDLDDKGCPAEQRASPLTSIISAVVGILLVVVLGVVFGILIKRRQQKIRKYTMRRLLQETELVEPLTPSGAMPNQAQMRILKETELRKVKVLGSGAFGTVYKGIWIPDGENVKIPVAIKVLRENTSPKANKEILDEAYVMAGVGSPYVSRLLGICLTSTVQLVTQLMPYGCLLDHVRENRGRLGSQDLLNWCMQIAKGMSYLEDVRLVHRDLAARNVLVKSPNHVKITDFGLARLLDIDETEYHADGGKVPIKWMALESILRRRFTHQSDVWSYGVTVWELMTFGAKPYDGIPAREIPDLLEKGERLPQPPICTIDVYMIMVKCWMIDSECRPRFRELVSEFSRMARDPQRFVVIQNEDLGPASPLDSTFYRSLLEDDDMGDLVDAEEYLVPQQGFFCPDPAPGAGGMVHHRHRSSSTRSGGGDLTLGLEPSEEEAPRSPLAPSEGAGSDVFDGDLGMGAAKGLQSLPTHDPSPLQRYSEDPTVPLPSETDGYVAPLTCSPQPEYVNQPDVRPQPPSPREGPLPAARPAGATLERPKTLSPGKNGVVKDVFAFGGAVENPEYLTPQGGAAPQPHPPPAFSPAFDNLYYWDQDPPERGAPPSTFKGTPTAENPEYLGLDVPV

Row | IC50 [1] | GI50 [2, 5] | Kp uu [3, 6] | Kp uu [3, 7] | IC50 [4] | SMILES | Kp uu ([3]; in vivo, Kp,uu CSF) | Kp uu ([3]; in vivo, Kp,uu brain) | GI50 ([2]; BT-474, 72 h, read-out: HER2 WT Amplification BT474 GI50 (nM)) | Kp,uu CSF ([3]; male Han Wistar rats, oral, AUC(CSF)/AUC(blood or plasma) x 1/fu) | Kp,uu brain ([3]; male Han Wistar rats, oral, AUC(brain)/AUC(blood or plasma) x fu ratio)
1 | > 10 µM | 47.2 nM | 1.92 | 0.11 | 16.8 nM | [2H]C([2H])([2H])N1CC[C@H](Oc2cccc3ncnc(Nc4ccc(Oc5ccn6ncnc6c5)c(C)c4)c23)C[C@@H]1C(F)(F)F (racemic) [Compound 25, (±)-N-(4-([1,2,4]triazolo[1,5-a]pyridin-7-yloxy)-3-methylphenyl)-5-(((2R,4S)-1-(methyl-d3)-2-(trifluoromethyl)piperidin-4-yl)oxy)quinazolin-4-amine] | – | – | – | – | –
2 | 5.13 µM | 22.1 nM | 0.52 | 0.1 | 10.3 nM | [2H]C1(Oc2cc(OC)cc3ncnc(Nc4ccc(Oc5ccn6ncnc6c5)c(C)c4)c23)CCN(C)CC1(F)F (racemic) [Compound 27, (±)-N-(4-([1,2,4]triazolo[1,5-a]pyridin-7-yloxy)-3-methylphenyl)-5-((3,3-difluoro-1-methylpiperidin-4-yl-4-d)oxy)-7-methoxyquinazolin-4-amine] | – | – | – | – | –
3 | > 3 µM | 24.2 ± 24 nM | 1.44 | 0.23 | 6.86 nM | Cc1cc(Nc2ncnc3cccc(OC4CCN(C)CC4(F)F)c23)ccc1Oc1ccn2ncnc2c1 (single isomer, unassigned) [Compound 1, N-(4-([1,2,4]triazolo[1,5-a]pyridin-7-yloxy)-3-methylphenyl)-5-((3,3-difluoro-1-methylpiperidin-4-yl)oxy)quinazolin-4-amine] | – | – | – | – | –
4 | 3.29 ± 1.35 µM | 18.7 ± 9.16 nM | 0.56 | 0.18 | 19.6 ± 8.76 nM | COc1cc(O[C@H]2CCN(C)CC2(F)F)c2c(Nc3ccc(Oc4ccn5ncnc5c4)c(C)c3)ncnc2c1 (single isomer, unassigned) [Compound 6] | – | – | – | – | –
5 | 1.39 µM | 26.8 ± 11.5 nM | 0.24 | 0.04 | 19.7 nM | COc1cc(OC2CCN(C)CC2(F)F)c2c(Nc3cc(C)c(Oc4ccn5ncnc5c4)cc3F)ncnc2c1 (single isomer, unassigned) [Compound 14] | – | – | – | – | –
6 | > 3 µM | 126 ± 9.01 nM | 1.02 | 0.07 | 44 nM | Cc1cc(Nc2ncnc3cc(F)cc(OC4CCN(C)CC4(F)F)c23)ccc1Oc1ccn2ncnc2c1 (single isomer, unassigned) [Compound 17] | – | – | – | – | –
7 | > 10 µM | 11.5 nM | 0.4 | 0.1 | 9.56 ± 3.13 nM | Cc1cc(Nc2ncnc3cccc(OC4CC(C)N(C)CC4(F)F)c23)ccc1Oc1ccn2ncnc2c1 (single isomer, unassigned) [Compound 19] | – | – | – | – | –
8 | > 10 µM | 50.8 nM | 1.44 | 0.23 | 9.38 nM | [2H]C([2H])([2H])N1CCC(Oc2cccc3ncnc(Nc4ccc(Oc5ccn6ncnc6c5)c(C)c4)c23)C(F)(F)C1 (single isomer, unassigned) [Compound 24, N-(4-([1,2,4]triazolo[1,5-a]pyridin-7-yloxy)-3-methylphenyl)-5-((3,3-difluoro-1-(methyl-d3)piperidin-4-yl)oxy)quinazolin-4-amine] | – | – | – | – | –
9 | 5.22 µM | 35.8 nM | 0.52 | 0.11 | 22.4 nM | [2H]C([2H])([2H])N1CCC([2H])(Oc2cc(OC)cc3ncnc(Nc4ccc(Oc5ccn6ncnc6c5)c(C)c4)c23)C(F)(F)C1 (single isomer, unassigned) [Compound 28] | – | – | – | – | –
10 | 3.06 ± 0.0803 µM | 14.3 ± 13.6 nM | 0.11 | 0.03 | 10.6 ± 2.4 nM | COc1cc(O[C@H]2CCNCC2(F)F)c2c(Nc3ccc(Oc4ccn5ncnc5c4)c(C)c3)ncnc2c1 [Compound 16, (S)-N-(4-([1,2,4]triazolo[1,5-a]pyridin-7-yloxy)-3-methylphenyl)-5-((3,3-difluoropiperidin-4-yl)oxy)-7-methoxyquinazolin-4-amine] | – | – | – | – | –
11 | – | – | – | – | – | CCOc1cc2ncc(C#N)c(Nc3ccc(OCc4ccccn4)c(Cl)c3)c2cc1NC(=O)/C=C/CN(C)C [Neratinib, reference compound] | – | – | 0.71 ± 0.08 nM | AUC(CSF) below | AUC(brain) below

Row | SMILES | IC50 [1] | GI50 [2, 5] | Kp uu [3, 6] | Kp uu [3, 7] | IC50 [4] | Kp uu ([3]; in vivo, Kp,uu CSF) | Kp uu ([3]; in vivo, Kp,uu brain) | GI50 ([2]; BT-474, 72 h, read-out: HER2 WT Amplification BT474 GI50 (nM)) | Kp,uu CSF ([3]; male Han Wistar rats, oral, AUC(CSF)/AUC(blood or plasma) x 1/fu) | Kp,uu brain ([3]; male Han Wistar rats, oral, AUC(brain)/AUC(blood or plasma) x fu ratio)
12 | Cc1cc(Nc2ncnc3cccc(O[C@@H]4C[C@H]5CC[C@@H](C4)N5C)c23)ccc1Oc1ccn2ncnc2c1 [Compound 20, N-(4-([1,2,4]triazolo[1,5-a]pyridin-7-yloxy)-3-methylphenyl)-5-(((1R,3s,5S)-8-methyl-8-azabicyclo[3.2.1]octan-3-yl)oxy)quinazolin-4-amine] | > 10 µM | 41 ± 1.55 nM | – | – | 12.6 nM | 0.07 | 0.08 | – | – | –

Reference: patent publication US10822334B2, “ErbB receptor inhibitors” (Dizal (Jiangsu) Pharmaceutical Co., Ltd., priority 2018, dated 2020)
